Source: US20260041667A1 (priority 2021, published 2026)

Legend:
[1] = biological target: hERG potassium channel current (IKr) (Homo sapiens, UniProt Q12809); conditions: Phase 1, 30 μM in protein free perfusate, n=3
Text: This assay is employed as a screen to assess potential risks for QT interval prolongation.

[2] = system: Beagle dogs; experiment: 14-day repeat-dose intranasal toxicity and toxicokinetic study in dogs (Study 62959); type: in vivo; conditions: dog
Procedure: Assessments of mortality, clinical signs, olfactory reflex, body weights, food consumption, ophthalmology, and electrocardiograms were performed.

[3] = system: Sprague Dawley rats; experiment: 14-day repeat-dose intranasal toxicity and toxicokinetic study in rats (Study 700041); conditions: rat
[4] = intranasal 0.4 mg/kg/day, Day 1, Female
[5] = intranasal 0.4 mg/kg/day, Day 1, Male
[6] = intranasal 0.4 mg/kg/day, Day 14, Female
[7] = intranasal 0.4 mg/kg/day, Day 14, Male
[8] = intranasal 0.8 mg/kg/day, Day 1, Male
[9] = intranasal 0.8 mg/kg/day, Day 14, Male
[10] = intranasal 5 mg/kg/day, Day 1, Female
[11] = intranasal 5 mg/kg/day, Day 1, Male
[12] = intranasal 5 mg/kg/day, Day 14, Female
[13] = intranasal 5 mg/kg/day, Day 14, Male
[14] = intranasal 20 mg/kg/day, Day 1, Female
[15] = intranasal 20 mg/kg/day, Day 1, Male
[16] = intranasal 20 mg/kg/day, Day 14, Female
[17] = intranasal 20 mg/kg/day, Day 14, Male
[18] = intranasal 75 mg/kg/day, Day 1, Female
[19] = intranasal 75 mg/kg/day, Day 1, Male
[20] = intranasal 75 mg/kg/day, Day 14, Female
[21] = intranasal 75 mg/kg/day, Day 14, Male

Sequence of hERG potassium channel current (IKr) (Q12809 whole entry): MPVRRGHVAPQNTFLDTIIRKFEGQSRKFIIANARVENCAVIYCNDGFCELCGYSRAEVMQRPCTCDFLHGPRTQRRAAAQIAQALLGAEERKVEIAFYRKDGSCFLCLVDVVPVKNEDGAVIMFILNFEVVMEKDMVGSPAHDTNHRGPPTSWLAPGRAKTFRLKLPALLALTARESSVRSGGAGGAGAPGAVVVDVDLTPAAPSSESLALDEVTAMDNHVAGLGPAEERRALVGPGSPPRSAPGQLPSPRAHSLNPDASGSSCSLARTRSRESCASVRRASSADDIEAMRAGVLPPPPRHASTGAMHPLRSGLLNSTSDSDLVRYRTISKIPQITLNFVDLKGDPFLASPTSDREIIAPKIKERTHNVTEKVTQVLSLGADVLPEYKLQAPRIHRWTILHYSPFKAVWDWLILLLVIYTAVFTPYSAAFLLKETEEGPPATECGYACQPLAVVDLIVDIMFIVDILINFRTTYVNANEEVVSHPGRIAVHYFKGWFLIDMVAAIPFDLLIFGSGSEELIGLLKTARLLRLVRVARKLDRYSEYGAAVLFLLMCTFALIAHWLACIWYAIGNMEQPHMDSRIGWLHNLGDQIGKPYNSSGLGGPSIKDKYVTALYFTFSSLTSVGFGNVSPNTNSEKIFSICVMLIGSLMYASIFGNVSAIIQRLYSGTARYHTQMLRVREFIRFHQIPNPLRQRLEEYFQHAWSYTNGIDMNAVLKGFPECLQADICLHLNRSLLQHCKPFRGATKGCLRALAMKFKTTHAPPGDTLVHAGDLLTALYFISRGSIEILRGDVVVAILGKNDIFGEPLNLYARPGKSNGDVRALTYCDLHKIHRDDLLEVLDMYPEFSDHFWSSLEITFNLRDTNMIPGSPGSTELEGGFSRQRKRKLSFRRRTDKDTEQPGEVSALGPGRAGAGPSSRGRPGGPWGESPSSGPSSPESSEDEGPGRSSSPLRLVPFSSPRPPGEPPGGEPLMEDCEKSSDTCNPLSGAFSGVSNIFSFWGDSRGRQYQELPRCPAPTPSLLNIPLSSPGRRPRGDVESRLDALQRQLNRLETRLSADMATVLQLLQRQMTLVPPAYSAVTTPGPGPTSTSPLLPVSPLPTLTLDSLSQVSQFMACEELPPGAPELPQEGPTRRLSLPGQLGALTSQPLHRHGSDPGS

COc1ccc2[nH]cc(CCN(C)C)c2c1 [Compound 5-MeO-DMT, 5-methoxy-N,N-dimethyltryptamine]
Inhibition of hERG potassium ion current [1]: 77.8±7.4% | AUC0-Tlast [2, 4]: 104 ng·h/mL | AUCINF—obs [2, 4]: 106 ng·h/mL | t1/2 [2, 4]: 18.7 min | AUC0-Tlast [2, 5]: 77.9 ng·h/mL | AUCINF—obs [2, 5]: 80.9 ng·h/mL | t1/2 [2, 5]: 34.3 min | AUC0-Tlast [2, 6]: 86.4 ng·h/mL | AUCINF—obs [2, 6]: 95.9 ng·h/mL | Cmax [2, 6]: 196 ng/mL | AUC0-Tlast [2, 7]: 70.6 ng·h/mL | AUCINF—obs [2, 7]: 77.7 ng·h/mL | Cmax [2, 7]: 285 ng/mL | AUC0-Tlast [2, 8]: 152 ng·h/mL | Cmax [2, 8]: 300 ng/mL | t1/2 [2, 8]: 35.7 min | t1/2 ([2]; intranasal 0.8 mg/kg/day, Day 14, Female): 95.4 min | AUC0-Tlast [2, 9]: 298 ng·h/mL | AUCINF—obs [2, 9]: 322 ng·h/mL | Cmax [2, 9]: 411 ng/mL | t1/2 [2, 9]: 79.2 min | AUC0-Tlast [SE] [3, 10]: 53.2 [15.9] h*ng/mL | AUCINF—obs [3, 10]: (53.7) h*ng/mL | Cmax [SE] [3, 10]: 186 [98.7] ng/mL | Tmax [3, 10]: 9.96 min | AUC0-Tlast [SE] [3, 11]: 39.9 [7.35] h*ng/mL | AUCINF—obs [3, 11]: (40.1) h*ng/mL | Cmax [SE] [3, 11]: 191 [45.6] ng/mL | AUC0-Tlast [SE] [3, 12]: 63.8 [4.55] h*ng/mL | AUCINF—obs [3, 12]: (64.0) h*ng/mL | Cmax [SE] [3, 12]: 645 [106] ng/mL | t1/2 [3, 12]: 6.78 min | AUC0-Tlast [SE] [3, 13]: 114 [13.8] h*ng/mL | AUCINF—obs [3, 13]: (115) h*ng/mL | Cmax [SE] [3, 13]: 627 [102] ng/mL | AUC0-Tlast [SE] [3, 14]: 198 [15.2] h*ng/mL | AUCINF—obs [3, 14]: (198) h*ng/mL | Cmax [SE] [3, 14]: 679 [162] ng/mL | AUC0-Tlast [SE] [3, 15]: 420 [62.1] h*ng/mL | AUCINF—obs [3, 15]: (421) h*ng/mL | Cmax [SE] [3, 15]: 4190 [1040] ng/mL | t1/2 [3, 15]: 7.5 min | AUC0-Tlast [SE] [3, 16]: 169 [21.2] h*ng/mL | AUCINF—obs [3, 16]: (169) h*ng/mL | Cmax [SE] [3, 16]: 795 [115] ng/mL | AUC0-Tlast [SE] [3, 17]: 133 [57.2] h*ng/mL | AUCINF—obs [3, 17]: (133) h*ng/mL | Cmax [SE] [3, 17]: 1200 [857] ng/mL | AUC0-Tlast [SE] [3, 18]: 228 [49.7] h*ng/mL | AUCINF—obs [3, 18]: (228) h*ng/mL | Cmax [SE] [3, 18]: 1310 [802] ng/mL | t1/2 [3, 18]: 9.36 min | AUC0-Tlast [SE] [3, 19]: 1030 [114] h*ng/mL | AUCINF—obs [3, 19]: (1040) h*ng/mL | Cmax [SE] [3, 19]: 7010 [1010] ng/mL | AUC0-Tlast [SE] [3, 20]: 155 [53.8] h*ng/mL | AUCINF—obs [3, 20]: (156) h*ng/mL | Cmax [SE] [3, 20]: 870 [361] ng/mL | t1/2 [3, 20]: 7.8 min | AUC0-Tlast [SE] [3, 21]: 391 [228] h*ng/mL | AUCINF—obs [3, 21]: (392) h*ng/mL | Cmax [SE] [3, 21]: 3290 [2510] ng/mL | t1/2 [3, 21]: 6.96 min
